From PMC7112232, “Computational design of substrate selective inhibition” (PLoS Computational Biology, 2020)

Columns and labels:
[1] = target: T1, Prolyl Oligopeptidase (POP) (Homo sapiens, UniProt P48147); assay: RP-HPLC cleavage assay with purified rhPOP (TRH as substrate); Km/Vmax and Dixon plots; format: biochemical
T1 construct: gene PREP; recombinant human POP (rhPOP), GST moiety removed
T1 sequence (P48147 1-710): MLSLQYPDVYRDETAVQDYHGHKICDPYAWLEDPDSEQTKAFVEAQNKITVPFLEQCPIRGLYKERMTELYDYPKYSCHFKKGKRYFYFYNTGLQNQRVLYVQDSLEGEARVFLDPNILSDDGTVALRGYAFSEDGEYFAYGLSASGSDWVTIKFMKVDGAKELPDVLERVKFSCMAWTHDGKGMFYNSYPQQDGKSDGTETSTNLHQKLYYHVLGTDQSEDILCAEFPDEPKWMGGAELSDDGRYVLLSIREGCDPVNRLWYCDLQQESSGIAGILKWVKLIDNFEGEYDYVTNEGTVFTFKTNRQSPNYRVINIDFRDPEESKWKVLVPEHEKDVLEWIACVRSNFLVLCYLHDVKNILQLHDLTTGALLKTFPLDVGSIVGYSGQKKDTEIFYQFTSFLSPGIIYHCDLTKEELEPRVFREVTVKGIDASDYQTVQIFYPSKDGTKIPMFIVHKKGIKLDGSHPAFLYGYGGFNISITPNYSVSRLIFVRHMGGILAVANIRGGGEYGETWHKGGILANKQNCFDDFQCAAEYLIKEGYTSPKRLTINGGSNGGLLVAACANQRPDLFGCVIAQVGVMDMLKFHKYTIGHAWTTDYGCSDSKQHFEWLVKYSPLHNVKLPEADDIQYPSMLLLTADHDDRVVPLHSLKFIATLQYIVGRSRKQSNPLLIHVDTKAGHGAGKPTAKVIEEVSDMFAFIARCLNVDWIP

[2] = target: T1, Prolyl Oligopeptidase (POP); assay: RP-HPLC cleavage assay with purified rhPOP (TRH as substrate); Dixon plots; format: biochemical

Question: How did the IC50 [1] turn out when `CCOC(=O)CN1C(=O)NC(CC)(c2ccccc2)C1=O` (centres unmarked) [T5450157] was run?
Answer: 130 µM

Question: Which IC50 [2] does the source give for `O=C(CCC(=O)N1CCCC1)c1ccccc1` [T6816369] here?
Answer: 32.1 µM
